Measurements from US7666875B2, “Hydantoin compounds” (Eisai R&D Management Co., Ltd., priority 2005, dated 2010).
pIC50: −log10 of the molar value. Read-outs that look alike come from different tables or passages of the source.

Target: T1, human T-bet (Homo sapiens, UniProt Q9UL17)
T1 construct: expressed in transfected cells; host or cells: engineered HEK cells (HEKT-bet)
T1 sequence (Q9UL17 1-535): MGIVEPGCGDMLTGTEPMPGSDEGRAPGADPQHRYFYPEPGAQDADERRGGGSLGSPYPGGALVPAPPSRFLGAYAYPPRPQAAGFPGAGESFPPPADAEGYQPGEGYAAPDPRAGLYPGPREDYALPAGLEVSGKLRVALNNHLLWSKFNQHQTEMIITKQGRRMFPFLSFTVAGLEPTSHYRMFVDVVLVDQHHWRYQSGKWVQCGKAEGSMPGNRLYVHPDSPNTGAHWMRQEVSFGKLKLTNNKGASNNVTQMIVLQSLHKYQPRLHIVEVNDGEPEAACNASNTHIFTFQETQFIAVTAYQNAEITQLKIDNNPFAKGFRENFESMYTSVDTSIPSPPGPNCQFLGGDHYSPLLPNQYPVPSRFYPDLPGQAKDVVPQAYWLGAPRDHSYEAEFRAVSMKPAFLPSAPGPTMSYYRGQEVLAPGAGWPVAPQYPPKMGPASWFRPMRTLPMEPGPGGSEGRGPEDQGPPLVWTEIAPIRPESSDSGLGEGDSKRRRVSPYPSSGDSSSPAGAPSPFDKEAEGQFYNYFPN
Assay: HEKT-bet-luc assay (T-bet dependent luciferase reporter in engineered HEK cells)
Type: cell-based
Details: HEKT-bet cells, compound 24 hours, IC50 normalized to reference ER-213038, read-out: IC50
Procedure, shortened: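 HEK cells expressing human T-bet and a T-box element–luciferase reporter were treated with compound for 24 h, then luciferase was read by luminescence. IC50 was scaled between uninhibited signal and maximal inhibition, then normalized to a same-plate reference compound multiplied by its established potency.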

Row | pIC50 (Table 4) | pIC50 (Table 2) | Compound
1 | 6.30 | – | COc1cccc(CN2C(=O)N(CC=C(C)C)C3(CCN(Cc4cccc5ccccc45)CC3)C2=O)c1 [Example 265]
2 | 6.29 | – | CCN1C(=O)N(Cc2cccc(OC)c2)C(=O)C12CCN(Cc1cccc(C)c1)CC2 [Example 266]
3 | 6.29 | – | COCCN1C(=O)N(Cc2cccc(OC)c2)C(=O)C12CCN(Cc1cccc3cc[nH]c13)CC2 [Example 267]
4 | 6.29 | – | COCCN1C(=O)N(Cc2cccc(OC)c2)C(=O)C12CCN(Cc1c(F)cccc1OC)CC2 [Example 268]
5 | 6.29 | – | COCCN1C(=O)N(Cc2cccc(OC)c2)C(=O)C12CCN(Cc1cc(OC)ccc1OC)CC2 [Example 269]
6 | 6.29 | – | COCCN1C(=O)N(Cc2cccc(OC)c2)C(=O)C12CCN(Cc1cc(OC)c(Cl)cc1F)CC2 [Example 270]
7 | 6.28 | – | CCOc1ccc(OCC)c(CN2CCC3(CC2)C(=O)N(Cc2cccc(OC)c2)C(=O)N3CCOC)c1 [Example 271]
8 | 6.28 | – | CCN1C(=O)N(Cc2ccc3ccccc3c2)C(=O)C12CCN(Cc1cccc(C)c1)CC2 [Example 272]
9 | 6.28 | – | CCCOc1ccc(CN2CCC3(CC2)C(=O)N(Cc2cccc(OC)c2)C(=O)N3CCOC)cc1OC [Example 273]
10 | 6.28 | – | COCCN1C(=O)N(Cc2cccc(OC)c2)C(=O)C12CCN(Cc1cccc(N(C)C)c1)CC2 [Example 274]
11 | 6.27 | – | COCCN1C(=O)N(Cc2cccc(OC)c2)C(=O)C12CCN(Cc1c(Cl)ccc(C)c1F)CC2 [Example 275]
12 | 6.27 | – | COCCN1C(=O)N(Cc2cccc(OC)c2)C(=O)C12CCN(Cc1cccc(N(C)c3ccccc3)c1)CC2 [Example 276]
13 | 6.27 | – | CCN1C(=O)N(CCCOc2ccccc2)C(=O)C12CCN(Cc1cccc(OC)c1)CC2 [Example 277]
14 | 6.27 | – | COCCN1C(=O)N(Cc2cccc(OC)c2)C(=O)C12CCN(Cc1ccc(F)c(OC)c1)CC2 [Example 278]
15 | 6.26 | – | CCN1C(=O)N(Cc2cccc(OC)c2)C(=O)C12CCN(Cc1cccc(OC)c1)CC2 [Example 279]
16 | 6.26 | – | CCN1C(=O)N(CCCc2ccccc2)C(=O)C12CCN(Cc1cccc3ccccc13)CC2 [Example 280]
17 | 6.26 | – | COc1cc(CN2CCC3(CC2)C(=O)N(Cc2cc(OC)cc(OC)c2)C(=O)N3Cc2ccc3c(c2)nnn3C)cc(OC)c1 [Example 281]
18 | 6.26 | – | CCN1C(=O)N(CCCc2ccccc2)C(=O)C12CCN(Cc1cccc(OC)c1)CC2 [Example 282]
19 | 6.26 | – | COCCN1C(=O)N(Cc2cccc(OC)c2)C(=O)C12CCN(Cc1ccc(-c3ccccc3)cc1)CC2 [Example 283]
20 | 6.26 | – | COCCN1C(=O)N(CCCc2ccccc2)C(=O)C12CCN(Cc1ccc3ccccc3c1)CC2 [Example 284]

Row | pIC50 (Table 4) | pIC50 (Table 2) | Compound
21 | 6.26 | – | COc1cccc(CN2C(=O)N(CCCO)C3(CCN(Cc4cc(OC)cc(OC)c4)CC3)C2=O)c1 [Example 285]
22 | 6.25 | – | CCN1C(=O)N(Cc2ccc3ccccc3c2)C(=O)C12CCN(Cc1cccc3ccccc13)CC2 [Example 286]
23 | 6.25 | – | CCN1C(=O)N(CCc2cc(OC)cc(OC)c2)C(=O)C12CCN(Cc1cc(OC)cc(OC)c1)CC2 [Example 287]
24 | 6.25 | – | COc1cc(CN2CCC3(CC2)C(=O)N(Cc2cc(OC)cc(OC)c2)C(=O)N3Cc2ccc(-n3cccn3)cc2)cc(OC)c1 [Example 288]
25 | 6.25 | – | COCCN1C(=O)N(Cc2cccc(OC)c2)C(=O)C12CCN(Cc1c(F)ccc(C)c1Cl)CC2 [Example 289]
26 | 6.25 | – | COCCN1C(=O)N(Cc2cccc(OC)c2)C(=O)C12CCN(Cc1cccc3c1OCCO3)CC2 [Example 290]
27 | 6.24 | – | COCCN1C(=O)N(CCCc2ccccc2OC)C(=O)C12CCN(Cc1ccccc1)CC2 [Example 291]
28 | 6.24 | – | COCN1C(=O)N(Cc2cc(OC)cc(OC)c2)C(=O)C12CCN(Cc1cccc(OC)c1)CC2 [Example 292]
29 | 6.24 | – | COc1cccc(CN2C(=O)N(Cc3ccccc3)C3(CCN(Cc4cc(OC)cc(OC)c4)CC3)C2=O)c1 [Example 293]
30 | 6.24 | – | O=C1N(/C=C/Cc2ccccc2)C(=O)C2(CCN(Cc3cccc4ccccc34)CC2)N1CCO [Example 294]
31 | 6.24 | – | COCCN1C(=O)N(Cc2cccc(OC)c2)C(=O)C12CCN(Cc1cccc3c4ccccc4n(C)c13)CC2 [Example 295]
32 | 6.23 | – | COCN1C(=O)N(/C=C/Cc2ccccc2)C(=O)C12CCN(Cc1cc(OC)cc(OC)c1)CC2 [Example 296]
33 | 6.23 | – | COc1cccc(CN2C(=O)N(Cc3cccc(OC)c3)C3(CCN(Cc4ccccc4)CC3)C2=O)c1 [Example 297]
34 | 6.23 | – | CNc1cccc(CN2CCC3(CC2)C(=O)N(Cc2cccc(OC)c2)C(=O)N3CCOC)c1 [Example 298]
35 | 6.22 | – | COc1cccc(CN2C(=O)N(Cc3cccc(OC)c3)C3(CCN(Cc4cccc5ccccc45)CC3)C2=O)c1 [Example 299]
36 | 6.22 | – | COCCN1C(=O)N(CCCc2ccccc2)C(=O)C12CCN(Cc1cccc(OC)c1)CC2 [Example 300]
37 | 6.22 | – | COCCN1C(=O)N(Cc2cccc(OC)c2)C(=O)C12CCN(Cc1cccc(OC)c1F)CC2 [Example 301]
38 | – | 7.35 | COc1cc(CN2CCC3(CC2)C(=O)N(C/C=C/c2ccccc2)C(=O)N3Cc2ccc(-n3cccn3)cc2)cc(OC)c1 [compound 41]
39 | – | 7.21 | COc1cc(CN2CCC3(CC2)C(=O)N(C/C=C/c2ccccc2)C(=O)N3CCO)cc(OC)c1 [compound 45]
